One assay concerns ES cells. Conditions: in vitro; literature (Seiler et al., ALTEX 2002); cited from earlier work.
Assay [1] relates to ES cells stably transfected with the α-MHC-SEAP vector (D3 mouse embryonic stem cells), differentiation into cardiac cells. Conditions: EB culture supernatants after 13 days.
Description: After 13 days culture supernatants were assayed for SEAP activity. Shown are mean values of duplicate samples from which background SEAP activity was substracted. Activities are expressed as percentage of SEAP activity in samples containing only solvent (DMSO) but no retinoic acid.
All incubations of cell cultures were performed at 37° C. in a humidified atmosphere containing 5% CO2.
Cells were collected by centrifugation (800 g for 5 min) and resuspended in Iscove's Modified Dulbecco's Medium (IMDM, Invitrogen) supplemented with 20% (v/v) fetal bovine serum (FBS, Invitrogen) at a density of 2×10^6 cells/ml. To aggregate ES cells, 4 ml of this suspension were incubated on a 6 cm bacteriological dish (Greiner) on a rocking platform (GFL 3006) with agitation (50 rpm). After 6 hours, 2 ml of that culture were added to 13 ml IMDM containing 20% FBS in a T25 flask (Falcon). The flask was incubated with rocking (50 rpm; GFL 3006) for 18 hours. During this procedure ES cell aggregates (embryoid bodies; EBs) were formed.
In 10 cm petri dishes (bacteriological grade, Greiner) medium was prepared consisting of IMDM supplemented with 20% FBS and retinoic acid added from above stocks to yield final concentrations of 10^−7 M, 10^−8 M, 10^−9 M, 10^−10 M, 10^−11 M, and 10^−12 M retinoic acid, respectively. One dish received DMSO (final concentration 0.1% (v/v)) without retinoic acid (solvent control). Each dish contained 10 ml of medium. 70 EBs were transferred into each petri dish and incubated for 4 days.
Subsequently, EBs were transferred to 6-well plates (tissue culture grade; Becton-Dickinson). Each well contained 3 ml IMDM with 20% FBS and retinoic acid and DMSO as described above for the culture in 10 cm dishes. […]
Samples were assayed for SEAP activity using the Great EscAPe SEAP Fluorescence Detection Kit (Becton-Dickinson) following the manufacturer's instructions. Fluorescence was measured using a microplate reader (Safire, Tecan). Background activity was determined by assaying a sample of fresh medium (Knockout™ D-MEM supplemented with 20% (v/v) Knockout™ SR).

Read-outs that look alike come from different tables or passages of the source.

On to `CC1=C(/C=C/C(C)=C/C=C/C(C)=C/C(=O)O)C(C)(C)CCC1` [retinoic acid, all-trans retinoic acid], for which the “generation of cardiomyocytes from ES cells” value in the assay on ES cells was “inhibit the generation of cardiomyocytes”. Besides, the SEAP activity entry in assay [1] (10^−8 M retinoic acid, solvent (DMSO) control) is listed as “decreased sharply”; in assay [1] (retinoic acid at concentrations higher than 10^−8 M (10^−7 M)), “no activity was observed”. Also, in assay [1] (retinoic acid below 10^−9 M, solvent (DMSO) control), the “SEAP activity as compared to controls” value is “no influence”.

The record behind these values is patent US20090328243A1, “Secreted proteins as markers for cell differentiation” (priority 2003, published 2009).
